From patent US11266640B2, “Polycyclic compound acting as IDO inhibitor and/or IDO-HDAC dual inhibitor” (Hangzhou Innogate Pharma Co., Ltd., priority 2017, dated 2022)

Key:
[1] = molecular target: T1, hIDO1 (Homo sapiens, UniProt P14902); assay: IDO inhibition activity based on HEK293T cells transfected with hIDO1 plasmid; format: cell-based; details: HEK293T cells transfected with hIDO1, 16 hours incubation, OD 480 nm; read-out: IDO inhibitory activity of HEK293T cells (IC50)
T1 construct: expressed in transfected cells; host or cells: HEK293T (293T) cells, transient transfection with Fugene 6
Protocol: 1. Test Method for IDO Inhibition Activity Based on HEK293T Cells:
The first step: cell transfection and plating. 5×10^6 293T cells were separately seeded in two T75 flasks and incubated overnight at 37° C. in a 5% CO2 incubator. […] of a mixture containing 1.5 μg of hIDO1 plasmid and 300 μL of opti-MEM was made into a mixture A; 18 μL of liposome fugene 6 was mixed with 300 μL of opti-MEM to prepare a mixture B, and allowed to stand at room temperature for 5 minutes. Mixture A and Mix B were mixed, placed at room temperature for 20 minutes, added to a 293T culture flask, and the other flask was used as a control and incubated overnight at 37° C. in a 5% CO2 incubator. The medium was discarded, digested with trypsin, and after digestion, the cells were neutralized with serum-containing medium, and the cells were blown to cause the cells to fall off. Pipette the cell suspension into a centrifuge tube and centrifuge at a speed of 800-1000 for 1-3 minutes. Aspirate the cell supernatant from the centrifuge tube. Add an appropriate volume of medium to the tube and gently blister to resuspend the cells. Count using a Vi-Cell XR cytometer. Adjust the cell suspension to the appropriate concentration. The cell suspension was added to a white-well 96-well plate at 80 μL/well. The second step: preparation and addition of the compound. Compounds were formulated in DMSO at 600 μM and the compounds were diluted in DMSO according to a multiple of the following table to give 6 concentration gradients of the compound. The 200× compound prepared in DMSO was formulated into a 10× dilution solution in proportion to the corresponding cell culture medium. Add 10 μL of 10× corresponding compound dilution and 10 μL of 10×TRP to each well, except for Min. Incubate for 16 hours in a 37° C. incubator. The third step: detection and analysis. Cell morphology was observed under an inverted microscope. 80 μL of the supernatant was added to a 3894 plate, and 10 μL of 6.1 N trichloroacetic acid was added to each well, shaken for 2 minutes, and placed in a 50-degree incubator for 30 minutes. Centrifuged at 2500 rpm for 10 minutes. Take 70 μL of the supernatant and transfer to a 3635 UV plate, add 70 μL of the reaction solution, and shake for 2 minutes to make the reaction uniform. Use EnSpire (PE) to detect data with an OD of 480 nm. The cell culture plate 3903 was allowed to stand at room temperature for 30 minutes. 100 μL/well of the cell activity detecting reagent was added to the culture plate. Mix on a shaker for 2 minutes to induce cell lysis. The 96-well plate was allowed to stand at room temperature for 10 minutes to stabilize the luminescence signal. Paste the white base film on the bottom of the plate and the plate was tested in Flexstation 3 (the relevant setting is: Illumination, integration time 500 ms). Record the experimental results obtained from the analysis.
The IC50 value is expressed by: A: IC50 value≤10 nM; B: 10 nM<IC50 value≤50 nM; C: 50 nM<IC50 value≤100 nM; D: IC50 value>100 nM.

[2] = molecular target: T2, IDO (Homo sapiens, UniProt P14902); assay: Hela cell-based IDO inhibitory activity test (IFNγ added); details: Hela cells with IFNγ, 48 hours incubation, OD 480 nm
T2 construct: endogenous in cells; host or cells: HeLa cells treated with IFNγ
Protocol: 2. Hela Cell-Based IDO Inhibitory Activity Test Method
The first step: cell plating. Prepare complete medium and mix well. Cell lines that are in good growth state are selected. Remove the cell culture flask from the incubator and check the cell name, media type and cell generation number on the bottle. The medium was discarded, digested with trypsin, and after digestion, the cells were neutralized with serum-containing medium, and the cells were blown to cause the cells to fall off. Pipette the cell suspension into a centrifuge tube and centrifuge at a speed of 800-1000 for 3-5 minutes. Aspirate the cell supernatant from the centrifuge tube. Add an appropriate volume of medium to the tube and gently blister to resuspend the cells. Count using a Vi-Cell XR cytometer. Adjust the cell suspension to the appropriate concentration. The cell suspension was added to a white-well 96-well plate at 80 μl/well according to the schematic below. The second step: preparation and addition of the compound. Compounds were formulated in DMSO at 600 μM and the compounds were diluted in DMSO according to a multiple of the following table to give 6 concentration gradients of the compound. The 200× compound prepared in DMSO was formulated into a 10× dilution solution in proportion to the corresponding cell culture medium. After 24 hours of cell seeding, 10 μL of 10× corresponding compound dilution and 10 μL of 10×IFNγ were added to each well. Incubate for 48 hours in a 37° C. incubator. The third step: detection and analysis. Cell morphology was observed under an inverted microscope. 80 μL of the supernatant was added to a 3894 plate, 10 μL of 6.1 N trichloroacetic acid was added to each well, shaken for 2 minutes, and placed in a 50-degree incubator for 30 minutes. Centrifuge, 2500 rpm for 10 minutes.
Take 70 μL of the supernatant and transfer to a 3635 UV plate, add 70 μL of the reaction solution, and shake for 2 minutes to make the reaction uniform. Use EnSpire (PE) to detect data with an OD of 480 nm. The cell culture plate 3903 was allowed to stand at room temperature for 30 minutes. 100 μL/well of the cell activity detecting reagent was added to the culture plate. Mix on a shaker for 2 minutes to induce cell lysis. The 96-well plate was allowed to stand at room temperature for 10 minutes to stabilize the luminescence signal. Paste the white base film on the bottom of the plate and tested with Flexstation3 plate (the relevant setting is: Illumination, integration time 500 ms). Record the experimental results obtained from the analysis.
The IC50 value is expressed in the following manner: […]

T1 sequence (P14902 whole entry): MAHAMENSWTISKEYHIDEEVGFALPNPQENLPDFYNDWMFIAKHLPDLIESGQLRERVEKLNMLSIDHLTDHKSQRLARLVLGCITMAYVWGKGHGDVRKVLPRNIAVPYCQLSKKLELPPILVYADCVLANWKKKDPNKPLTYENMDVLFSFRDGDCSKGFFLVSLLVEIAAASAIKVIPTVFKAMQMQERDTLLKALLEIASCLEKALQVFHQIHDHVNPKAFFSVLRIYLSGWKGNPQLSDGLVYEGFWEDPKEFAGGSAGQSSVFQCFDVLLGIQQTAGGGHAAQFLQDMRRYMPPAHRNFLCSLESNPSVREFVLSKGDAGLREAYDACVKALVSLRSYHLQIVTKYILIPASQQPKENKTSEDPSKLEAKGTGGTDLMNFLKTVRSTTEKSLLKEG
T2 sequence (P14902 whole entry): as above

Row | Compound | IC50 [1] [nM] | IC50 [2] [nM]
1 | O=C(C[C@@H]1C[C@@H]2C[C@H](c3ccnc4ccc(F)cc34)C[C@@H]2C1)NC1CCC(F)(F)CC1 [Compound 12] | > 100 | 25 to 100
2 | C[C@H](C(=O)Nc1ccc(Cl)cc1)[C@H]1C[C@H]2C[C@@H](c3ccnc4ccc(F)cc34)C[C@H]2C1 (single isomer, unassigned) [Compound 1B] | ≤ 10 | ≤ 5
3 | O=C(CC1=C[C@H]2C[C@@H](c3ccnc4ccc(F)cc34)C[C@H]2C1)Nc1ccc(Cl)cc1 (racemic) [Compound 57] | 10 to 50 | ≤ 5
4 | CC#Cc1ccc(NC(=O)C(C)(C)[C@H]2C[C@H]3C[C@@H](c4ccnc5ccc(F)cc45)C[C@H]3C2)nc1 [Compound 90] | ≤ 10 | ≤ 5
5 | O=C(C[C@@H]1C[C@@H]2C[C@H](c3ccnc4ccc(F)cc34)C[C@@H]2C1)Nc1ccc(Cl)cc1 [Compound 2] | 10 to 50 | 5 to 25
6 | CC(C(=O)Nc1ccc(C#CC2CC2)cn1)[C@H]1C[C@H]2CC(c3ccnc4ccc(F)cc34)C[C@H]2C1 (some centres unmarked) [Compound 79] | 10 to 50 | > 100
7 | C#Cc1ccc(NC(=O)C(C)(C)[C@H]2C[C@H]3C[C@@H](c4ccnc5ccc(F)cc45)C[C@H]3C2)nc1 [Compound 86] | ≤ 10 | ≤ 5
8 | CC(C)(C(=O)Nc1ccc(Cl)nc1)[C@H]1C[C@H]2C[C@@H](c3ccnc4ccc(F)cc34)C[C@H]2C1 [Compound 85] | ≤ 10 | 5 to 25
9 | C#Cc1ccc(NC(=O)C2([C@@H]3C[C@H]4C[C@@H](c5ccnc6ccc(F)cc56)C[C@H]4C3)CC2)cn1 [Compound 93] | ≤ 10 | ≤ 5
10 | O=C(C[C@H]1C[C@@H]2C[C@H](c3ccnc4ccc(F)cc34)C[C@@H]2C1)Nc1ccc(Cl)cc1 [Compound 5] | ≤ 10 | ≤ 5
11 | CC(C(=O)Nc1ccc(Cl)cc1)[C@@H]1C[C@H]2C[C@@H](c3ccnc4ccc(F)cc34)C[C@H]2C1 (some centres unmarked) [Compound 4] | 10 to 50 | ≤ 5
12 | CC(C)(C(=O)Nc1ccc(Cl)cn1)[C@H]1C[C@H]2C[C@@H](c3ccnc4ccc(F)cc34)C[C@H]2C1 [Compound 84] | ≤ 10 | > 100
13 | C#Cc1ccc(NC(=O)C(C)[C@H]2C[C@H]3C[C@@H](c4ccnc5ccc(F)cc45)C[C@H]3C2)nc1 (some centres unmarked) [Compound 74] | 10 to 50 | ≤ 5
14 | CC(C(=O)Nc1ccc(Cl)nn1)[C@H]1C[C@H]2C[C@@H](c3ccnc4ccc(F)cc34)C[C@H]2C1 (some centres unmarked) [Compound 29] |  | 25 to 100
15 | CC(C(=O)Nc1cncc(Cl)c1)[C@H]1C[C@H]2C[C@@H](c3ccnc4ccc(F)cc34)C[C@H]2C1 (some centres unmarked) [Compound 35] |  | 5 to 25
16 | O=C(Nc1ccc(Cl)cn1)C(F)(F)[C@H]1C[C@H]2C[C@@H](c3ccnc4ccc(F)cc34)C[C@H]2C1 [Compound 104] |  | 25 to 100
17 | O=C(C[C@H]1C[C@H]2CC(c3ccnc4ccc(F)cc34)C[C@H]2C1)Nc1ccc(Cl)cn1 (some centres unmarked) [Compound 17] |  | 5 to 25
18 | C#Cc1ccc(NC(=O)[C@H](C)[C@@H]2C[C@H]3CC(c4ccnc5ccc(F)cc45)C[C@H]3C2)nc1 (some centres unmarked) [Compound 75] |  | 5 to 25
19 | O=C(C[C@@H]1C[C@@H]2C[C@@]3(c4ccnc5ccc(F)cc45)O[C@H]3[C@@H]2C1)Nc1ccc(Cl)cc1 [Compound 49] |  | 5 to 25
20 | CC(C)(C(=O)Nc1ccc(Cl)cn1)N1C[C@H]2C[C@@H](c3ccnc4ccc(F)cc34)C[C@H]2C1 [Compound 100] |  | > 100
21 | CC(C)(C(=O)Nc1ccc(C#N)nc1)[C@H]1C[C@H]2C[C@@H](c3ccnc4ccc(F)cc34)C[C@H]2C1 [Compound 89] |  | ≤ 5
22 | CC#Cc1ccc(NC(=O)C(C)(C)[C@H]2C[C@H]3C[C@@H](c4ccnc5ccc(F)cc45)C[C@H]3C2)cn1 [Compound 91] |  | ≤ 5

Other lines, results leading:

Row | IC50 [1] [nM] | IC50 [2] [nM] | Compound
23 | ≤ 10 | ≤ 5 | C/C(C(=O)Nc1ccc(Cl)cc1)=C1\C[C@@H]2C[C@H](c3ccnc4ccc(F)cc34)C[C@@H]2C1 [Compound 68]
24 | ≤ 10 | ≤ 5 | CC(C(=O)Nc1ccc(Cl)cc1)[C@H]1C[C@H]2C[C@@H](c3ccnc4ccc(F)cc34)C[C@H]2C1 (mixture of isomers) [Compound 1]
25 | 10 to 50 | ≤ 5 | N#Cc1ccc(NC(=O)C2([C@@H]3C[C@H]4C[C@@H](c5ccnc6ccc(F)cc56)C[C@H]4C3)CC2)nc1 [Compound 94]
26 | 10 to 50 | 5 to 25 | O=C(C[C@@H]1C[C@@H]2C[C@@H](c3ccnc4ccc(F)cc34)C(O)[C@@H]2C1)Nc1ccc(Cl)cc1 (some centres unmarked) [Compound 50]
27 | > 100 | > 100 | CC(C(=O)Nc1ccc(Cl)cc1)[C@@H]1C[C@@H]2CN(c3ccnc4ccc(F)cc34)C[C@@H]2C1 (some centres unmarked) [Compound 9]
28 | 10 to 50 | ≤ 5 | CC(C(=O)Nc1ccc(Cl)nc1)[C@@H]1C[C@]2(C)C[C@H](c3ccnc4ccc(F)cc34)C[C@]2(C)C1 (some centres unmarked) [Compound 42]
29 | ≤ 10 | ≤ 5 | CC(C(=O)Nc1ccc(C#N)cn1)[C@H]1C[C@H]2C[C@@H](c3ccnc4ccc(F)cc34)C[C@H]2C1 (some centres unmarked) [Compound 73]
30 |  | ≤ 5 | C[C@H](C(=O)Nc1ccc(Cl)cn1)[C@H]1C[C@H]2CC(c3ccnc4ccc(F)cc34)C[C@H]2C1 (single isomer, unassigned) [Compound 26B]
31 |  | > 100 | CC#Cc1ccc(NC(=O)C(C)[C@H]2C[C@H]3C[C@@H](c4ccnc5ccc(F)cc45)C[C@H]3C2)cn1 (some centres unmarked) [Compound 83]
32 |  | ≤ 5 | CC(C(=O)Nc1ccc(Cl)nc1)C1=C[C@H]2C[C@@H](c3ccnc4ccc(F)cc34)C[C@H]2C1 (some centres unmarked) [Compound 39]
33 |  | > 100 | O=C(C[C@@H]1C[C@@H]2CC(c3ccncc3F)=C[C@@H]2C1)Nc1ccc(Cl)cc1 [Compound 53]
34 |  | > 100 | O=C(Nc1ccc(Cl)cn1)/C(F)=C1/C[C@@H]2C[C@H](c3ccnc4ccc(F)cc34)C[C@@H]2C1 [Compound 105]
35 |  | > 100 | Cn1ncc2cc(NC(=O)C[C@H]3C[C@H]4CC(c5ccnc6ccc(F)cc56)C[C@H]4C3)ccc21 (some centres unmarked) [Compound 15]
36 |  | ≤ 5 | O=C(C[C@@H]1C[C@@H]2CC(c3ccnc4ccc(F)cc34)=C[C@@H]2C1)Nc1ccc(Cl)nc1 (racemic) [Compound 62]
